Measured values as given in paper PMC6072100, “Exploring the links between peptoid antibacterial activity and toxicity” (MedChemComm, 2017).
Where “and” joins values, the source holds several entries; their conditions need not be identical. Equal values may be shown once. Read-outs that look alike come from different tables or passages of the source. Square brackets hold non-standard residues; d marks the D form. Peptide text beside a SMILES is read from it. Gly(Nα-4-Cl-benzyl) = O=C(O)CNCc1ccc(Cl)cc1; N(4-F-Bzl)Gly = O=C(O)CNCc1ccc(F)cc1; Gly(N-(CH2)6NH2) = NCCCCCCNCC(=O)O; Gly(N-2-aminoethyl) = NCCNCC(=O)O; Nspe = C[C@H](NCC(=O)O)c1ccccc1; Nphe = O=C(O)CNCc1ccccc1; Nlys = NCCCCNCC(=O)O

How the values were obtained:
Type in all cases: cell-based
[1] = test system: Pseudomonas aeruginosa PA01 (ATCC 15692)
Summary of the method: (§1)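 Broth microdilution MIC in Iso-sensitest broth; inoculum adjusted to A650 0.07 (0.5 McFarland) then diluted ten-fold. Peptoids from DMSO stock at final 2–100 μM (2-fold series), 37 °C for 16 h with shaking; growth read by absorbance, triplicate, ampicillin and DMSO controls.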

[2] = test system: Staphylococcus aureus (3R7089 strain Oxford/ATCC9144)
Summary of the method: as §1

[3] = test system: Escherichia coli K-12 wild-type strain (W3110/ATCC27325); conditions: for MIC E. coli: lowest concentration completely inhibiting growth, 37 °C, 16 h, range 2–100 μM
Summary of the method: as §1

[4] = test system: Staphylococcus epidermidis (laboratory strain from clinical isolate); conditions: 16 h
Summary of the method: as §1

[5] = lowest concentration completely inhibiting growth, 37 °C, 16 h, range 2–100 μM
[6] = lowest concentration completely inhibiting growth, 37 °C, range 2–100 μM
[7] = laboratory strain from clinical isolate

SMILES	MIC P. aeruginosa [1, 5]	MIC S. aureus ([2]; ATCC9144, 16 h) [µM]	MIC S. aureus [2, 5] [µM]	MIC E. coli [3]	MIC S. epidermidis [4, 6] [µM]	activity against E. coli (in words) [3]	MIC P. aeruginosa ([1]; ATCC 15692, 16 h) [µM]	MIC S. epidermidis [4, 7] [µM]
NCCCCNCC(=O)N(CC(=O)N(CC(=O)N(CCCCN)CC(=O)N(CC(=O)N(CC(=O)N(CCCCN)CC(=O)N(CC(=O)N(CC(=O)N(CCCCN)CC(=O)N(CC(=O)N(CC(N)=O)Cc1ccc(F)cc1)Cc1ccc(F)cc1)Cc1ccc(F)cc1)Cc1ccc(F)cc1)Cc1ccc(F)cc1)Cc1ccc(F)cc1)Cc1ccc(F)cc1)Cc1ccc(F)cc1 [Peptoid 22, (NLysNpfbNpfb)4] (H-[Nlys][N(4-F-Bzl)Gly][N(4-F-Bzl)Gly][Nlys][N(4-F-Bzl)Gly][N(4-F-Bzl)Gly][Nlys][N(4-F-Bzl)Gly][N(4-F-Bzl)Gly][Nlys][N(4-F-Bzl)Gly][N(4-F-Bzl)Gly]-NH2)	25 µM	2	2	13 µM	1			
C[C@@H](c1ccccc1)N(CC(N)=O)C(=O)CN(C(=O)CN(CCN)C(=O)CN(C(=O)CN(C(=O)CN(CCN)C(=O)CN(C(=O)CN(C(=O)CN(CCN)C(=O)CN(C(=O)CN(C(=O)CNCCN)[C@@H](C)c1ccccc1)[C@@H](C)c1ccccc1)[C@@H](C)c1ccccc1)[C@@H](C)c1ccccc1)[C@@H](C)c1ccccc1)[C@@H](C)c1ccccc1)[C@@H](C)c1ccccc1 [Peptoid 16, (NaeNspeNspe)4] (H-[Gly(N-2-aminoethyl)][Nspe][Nspe][Gly(N-2-aminoethyl)][Nspe][Nspe][Gly(N-2-aminoethyl)][Nspe][Nspe][Gly(N-2-aminoethyl)][Nspe][Nspe]-NH2)	50 µM		2	100 µM and > 100 µM	2	negligible activity		
C[C@@H](c1ccccc1)N(CC(N)=O)C(=O)CN(C(=O)CN(CCCCN)C(=O)CN(C(=O)CN(C(=O)CN(CCCCN)C(=O)CN(C(=O)CN(C(=O)CNCCCCN)[C@@H](C)c1ccccc1)[C@@H](C)c1ccccc1)[C@@H](C)c1ccccc1)[C@@H](C)c1ccccc1)[C@@H](C)c1ccccc1 [Peptoid 14, (NLysNspeNspe)3] (H-[Nlys][Nspe][Nspe][Nlys][Nspe][Nspe][Nlys][Nspe][Nspe]-NH2)	>100 µM		2	13 µM	2			
NCCCCNCC(=O)N(CC(=O)N(CC(=O)N(CCCCN)CC(=O)N(CC(=O)N(CC(=O)N(CCCCN)CC(=O)N(CC(=O)N(CC(N)=O)Cc1cccc(F)c1)Cc1cccc(F)c1)Cc1cccc(F)c1)Cc1cccc(F)c1)Cc1cccc(F)c1)Cc1cccc(F)c1 [Peptoid 25, (NLysNmfbNmfb)3]	25 µM		6	13 µM	2			
NCCCCNCC(=O)N(CC(=O)N(CC(=O)N(CCCCN)CC(=O)N(CC(=O)N(CC(=O)N(CCCCN)CC(=O)N(CC(=O)N(CC(N)=O)Cc1ccc(Cl)cc1)Cc1ccc(Cl)cc1)Cc1ccc(Cl)cc1)Cc1ccc(Cl)cc1)Cc1ccc(Cl)cc1)Cc1ccc(Cl)cc1 [Peptoid 21, (NLysNpcbNpcb)3] (H-[Nlys][Gly(Nα-4-Cl-benzyl)][Gly(Nα-4-Cl-benzyl)][Nlys][Gly(Nα-4-Cl-benzyl)][Gly(Nα-4-Cl-benzyl)][Nlys][Gly(Nα-4-Cl-benzyl)][Gly(Nα-4-Cl-benzyl)]-NH2)	25 µM		3	50 µM	2			
C[C@@H](c1ccccc1)N(CC(N)=O)C(=O)CN(Cc1ccc(F)cc1)C(=O)CN(CCCCN)C(=O)CN(C(=O)CN(Cc1ccc(F)cc1)C(=O)CN(CCCCN)C(=O)CN(C(=O)CN(Cc1ccc(F)cc1)C(=O)CN(CCCCN)C(=O)CN(C(=O)CN(Cc1ccc(F)cc1)C(=O)CNCCCCN)[C@@H](C)c1ccccc1)[C@@H](C)c1ccccc1)[C@@H](C)c1ccccc1 [Peptoid 26, (NLysNpfbNspe)4]	13 µM		2	13 µM	2			
NCCCCNCC(=O)N(CC(=O)N(CC(=O)N(CCCCN)CC(=O)N(CC(=O)N(CC(=O)N(CCCCN)CC(=O)N(CC(=O)N(CC(=O)N(CCCCN)CC(=O)N(CC(=O)N(CC(N)=O)Cc1ccccc1)Cc1ccccc1)Cc1ccccc1)Cc1ccccc1)Cc1ccccc1)Cc1ccccc1)Cc1ccccc1)Cc1ccccc1 [Peptoid 4, (NLysNpheNphe)4] (H-[Nlys][Nphe][Nphe][Nlys][Nphe][Nphe][Nlys][Nphe][Nphe][Nlys][Nphe][Nphe]-NH2)	50 µM		3	13 µM	2			
NCCCCCCNCC(=O)N(CC(=O)N(CC(=O)N(CCCCCCN)CC(=O)N(CC(=O)N(CC(N)=O)Cc1ccccc1)Cc1ccccc1)Cc1ccccc1)Cc1ccccc1 [Peptoid 3, (NahNpheNphe)2] (H-[Gly(N-(CH2)6NH2)][Nphe][Nphe][Gly(N-(CH2)6NH2)][Nphe][Nphe]-NH2)		>100		>100 µM			>100	>100
NCCCCNCC(=O)N(CC(=O)N(CC(=O)N(CCCCN)CC(=O)N(CC(=O)N(CC(N)=O)Cc1ccccc1)Cc1ccccc1)Cc1ccccc1)Cc1ccccc1 [Peptoid 6, (NLysNpheNphe)2] (H-[Nlys][Nphe][Nphe][Nlys][Nphe][Nphe]-NH2)	100 µM	>100	100	>100 µM	100		>100	>100
C[C@@H](c1ccccc1)N(CC(N)=O)C(=O)CN(C(=O)CN(CCCCN)C(=O)CN(C(=O)CN(C(=O)CN(CCCCN)C(=O)CN(C(=O)CN(C(=O)CN(CCCCN)C(=O)CN(C(=O)CN(C(=O)CNCCCCN)[C@@H](C)c1ccccc1)[C@@H](C)c1ccccc1)[C@@H](C)c1ccccc1)[C@@H](C)c1ccccc1)[C@@H](C)c1ccccc1)[C@@H](C)c1ccccc1)[C@@H](C)c1ccccc1 [Peptoid 13, (NLysNspeNspe)4] (H-[Nlys][Nspe][Nspe][Nlys][Nspe][Nspe][Nlys][Nspe][Nspe][Nlys][Nspe][Nspe]-NH2)	50 µM		2	25 µM	1			
C[C@@H](c1ccccc1)N(CC(N)=O)C(=O)CN(C(=O)CN(CCN)C(=O)CN(C(=O)CN(C(=O)CN(CCN)C(=O)CN(C(=O)CN(C(=O)CNCCN)[C@@H](C)c1ccccc1)[C@@H](C)c1ccccc1)[C@@H](C)c1ccccc1)[C@@H](C)c1ccccc1)[C@@H](C)c1ccccc1 [Peptoid 17, (NaeNspeNspe)3]	100 µM and > 100 µM		2	25 µM	13			
